Data reported in patent publication US20220169603A1, “NOVEL SALTS, CRYSTALLINE FORMS AND PREMIX OF HYPOLIPIDEMIC AGENT” (Cadila Healthcare Ltd., priority 2019, published 2022).

Experiments:
[1] = system: serum triglyceride levels; assay: Comparative efficacy study (triglyceride lowering effects) in Swiss albino mice; type: in vivo; details: for % Change Day 6 vs Day 0 (serum triglycerides) / % Change Vs control (serum triglycerides) / Serum triglycerides Day 6: 1 mg/kg free acid equivalent, oral, once daily for six days; for % Change Vs control (serum triglycerides): vs vehicle control; for reduction in serum triglyceride levels as compared to vehicle control group: p.o., six days; for Serum triglycerides Day 0: Day 0, before treatment, male Swiss albino mice, 6 per group; for Serum triglycerides Day 6: Day 6, one hr after dose
Description: The in-vivo efficacy of test compound was evaluated in Swiss albino mice. Anti-dyslipidemic drugs have been reported to lower circulating levels of triglyceride in Swiss albino mice through their effect on genes involved in the peroxisomal fatty acid beta oxidation via PPAR alpha agonism. Therefore, this species is preferred for evaluation of their efficacy in lowering circulating triglyceride (TG) levels.
In this experiment, ten to eleven week old male Swiss albino mice were issued and kept for acclimatization. Near the end of the acclimatization period, animals judged to be suitable for testing were bled under light anesthesia and serum samples were analyzed for serum triglyceride levels.
Test compounds were formulated at specified doses in vehicle (MiliQ Water). The animals were dosed orally, once daily in the morning during six days, starting from next day of grouping with vehicle or test compound. The animals were weighed prior to dosing, and based on these weights; the volume of administration was calculated. The volume of formulation administered to each mouse was 10 ml/kg body weight.
On day 6, one-hr after the dose administration, blood (0.25 ml) was collected from retro-orbital sinus of the anaesthetized animals. Serum was separated by centrifugation. Serum was analyzed for triglyceride levels. Analysis for serum triglyceride levels was performed using Spectrophotometer and commercially available kit. Calculations for determination of % change and % reduction in serum TG levels (Table 3) were performed using MS Excels sheet.

[2] = Stability of selected compounds measured by HPLC purity over 6 months; type: physicochemical
Description: • Column: YMC-pack ODS-AM (type L1) or equivalent; 250×4.6 mm, 5 μm • Wave length: 294 nm • Column temp.: 30° C. • Mobile phase: [Ammonium acetate buffer: Acetonitrile]/[55:45] • Flow rate: 1 ml/min • Injection vol.: 5 μl • Retention time: About 10 mints. • Run time: 60 mints.

[3] = Stability study of Saroglitazar free acid (purity and % of impurity on storage); type: physicochemical
Source text: Further the Saroglitazar free acid as disclosed in WO03009841 was always obtained in liquid form.

Compound | % Change Day 6 vs Day 0 (serum triglycerides) [1] [%] | % Change Vs control (serum triglycerides) [1] [%] | reduction in serum triglyceride levels as compared to vehicle control group ([1]; 1 mg/kg) | Serum triglycerides Day 0 [1] [mg/dL] | Serum triglycerides Day 6 [1] [mg/dL] | HPLC (% purity) At 0 month [2] [%] | HPLC (% purity) After 6 months [2] [%] | Serum triglycerides Day 6 ([1]; 1 mg/kg) [mg/dL] | also measured
CCO[C@@H](Cc1ccc(OCCn2c(C)ccc2-c2ccc(SC)cc2)cc1)C(=O)[O-].[Na+] [Example 6, (S)-2-ethoxy-3-(4-(2-(2-methyl-5-(4-(methylthio)phenyl)-1H-pyrrol-1-yl)ethoxy)phenyl)propanoic Acid Sodium Salt] | −34.4 ± 10.5 | −62.7 ± 6.0 | 62.7% | 59.6 ± 5.4 | 39.0 ± 7.5 | – | – | – | –
CCO[C@@H](Cc1ccc(OCCn2c(C)ccc2-c2ccc(SC)cc2)cc1)C(=O)[O-].[Li+] [Example 12, (S)-2-ethoxy-3-(4-(2-(2-methyl-5-(4-(methylthio)phenyl)-1H-pyrrol-1-yl)ethoxy)phenyl)propanoic Acid Lithium Salt] | – | – | – | – | – | 96.82 | 95.50 | – | –
CCO[C@@H](Cc1ccc(OCCn2c(C)ccc2-c2ccc(SC)cc2)cc1)C(=O)O [Saroglitazar, (S) 2-Ethoxy-3-(4-{2-[2-methyl-5-(4-methylthiophenyl)-pyrrol-1-yl]-ethoxy}-phenyl)-propionic acid] | 8.7 ± 9.0 | −38.2 ± 5.1 | 38.2% | 61.8 ± 7.4 | 65.9 ± 7.7 | – | – | – | % of impurity (RT-~22.0 min) AFTER 6 DAYS ([3]; at 0-5° C.): (0.598%); PURITY AFTER 6 DAYS ([3]; at 0-5° C.): 98.44%; % of impurity (RT-~22.0 min) AFTER 17 DAYS ([3]; at 0-5° C.): (0.631%); PURITY AFTER 17 DAYS ([3]; at 0-5° C.): 98.39%; % of impurity (RT-~22.0 min), initial ([3]; at 0-5° C.): (0.573%); INITIAL PURITY ([3]; at 0-5° C.): 98.11%; % of impurity (RT-~22.0 min) AFTER 6 DAYS ([3]; at 25~30° C.): (0.770%); PURITY AFTER 6 DAYS ([3]; at 25~30° C.): 98.12%; % of impurity (RT-~22.0 min) AFTER 17 DAYS ([3]; at 25~30° C.): (0.850%); PURITY AFTER 17 DAYS ([3]; at 25~30° C.): 97.87%; % of impurity (RT-~22.0 min), initial ([3]; at 25~30° C.): (0.573%); INITIAL PURITY ([3]; at 25~30° C.): 98.11%; stability (in words) ([3]; room temperature conditions): less stable
(S)-2-ethoxy-3-(4-(2- (2-methyl-5-(4-(methylthio)phenyl)-1H-pyrrol-1-yl)ethoxy)phenyl)propanoic Acid Magnesium Salt [Example 31] | – | – | – | – | – | 96.95 | 95.55 | – | –
(S)-2-ethoxy-3-(4-(2-(2-methyl-5-(4-(methylthio)phenyl)-1H-pyrrol-1-yl)ethoxy)phenyl)propanoic Acid Aluminum Salt [Example 14] | −35.1 ± 10.9 | −63.1 ± 6.2 | 63,1% | 61.9 ± 7.4 | 37.4 ± 3.4 | 96.79 | 94.94 | – | –
(S)-2-ethoxy-3-(4-(2-(2-methyl-5-(4-(methylthio)phenyl)-1H-pyrrol-1-yl)ethoxy)phenyl)propanoic Acid Magnesium Salt [Example 28] | −47.7 ± 10.2 | −70.2 ± 5.8 | – | 64.3 ± 8.6 | – | 93.08 | 90.72 | 30.0 ± 3.8 | –
(S)-2-ethoxy-3-(4-(2-(2-methyl-5-(4-(methylthio)phenyl)-1H-pyrrol-1-yl)ethoxy)phenyl)propanoic Acid Magnesium Salt [Example 29] | −35.5 ± 7.5 | −63.3 ± 4.3 | – | 59.4 ± 5.0 | – | 97.68 | 94.63 | 37.0 ± 3.5 | –
(S)-2-ethoxy-3-(4-(2-(2-methyl-5-(4-(methylthio)phenyl)-1H-pyrrol-1-yl)ethoxy)phenyl)propanoic Acid Magnesium Salt [Example 32] | −44.5 ± 10.4 | −68.4 ± 5.9 | – | 61.9 ± 7.7 | – | 97.10 | 95.78 | 32.6 ± 4.9 | –
(S)-2-ethoxy-3-(4-(2-(2methyl-5-(4-(methylthio)phenyl)-1H-pyrrol-1-yl)ethoxy)phenyl)propanoic Acid Calcium Salt [Example 16] | −33.9 ± 14.3 | −62.4 ± 8.1 | 62.4% | 61.3 ± 6.4 | 38.2 ± 5.6 | 96.83 | 96.76 | – | –
